Data set [1] is described as follows: Blood levels of contrast medium of four patient groups after oral administration (3 g, microcrystal suspension) with various additional treatments. Particulars: sodium bicarbonate given orally with the contrast agent.
Protocol: (§1) Suspension with Various Additional Treatments
(§2) III = 10 mg. of Metoclopramide i.v.; and
IV = g. of Sodium Bicarbonate)
For data set [2] the following is noted: human, in vivo.
Protocol: as §1, §2
IV = g. of Sodium Bicarbonate)
The nature of data set [3]: clinical. To be noted: human, in vivo, po.
Protocol: as §1, §2
IV = g. of Sodium Bicarbonate)

A value given as a limit tells only on which side of the number the result lay.

In the case of `O=C(O)O` [sodium bicarbonate], the “effect of simultaneous oral administration on resorption of the contrast agent” value in data set [1] is listed as “accelerates resorption of the contrast agent in a statistically significant manner”.

What is called half-life is the time needed for the level to fall by half in the phase considered. Broadly, the Cmax is the peak of the concentration-time curve. As a reminder, the Tmax is the time at which the peak concentration occurs. In data set [2], `CCN(C(=O)CCC(=O)O)c1c(I)cc(I)c(NC)c1I` [succinic acid mono-2,4,6-triiodo-3-methylamino-N-ethylanilide] yielded a resorption half life of 0.3 ± 0.1 h. In addition, the “blood level within 30 minutes after ingestion, on the average, as % of the maximum value” in data set [2] (30 min) amounted to 80%. Also, in data set [2] (po), the “Cmax (% of dose in total blood volume)” value was 23 ± 8 % of Dose in Bl. Vol and the “tmax (time of maximum blood level)” value was 2.2 ± 0.4 h. In data set [3], this compound registered a half-life of 2.3 ± 1.4 h. The same compound returned a Cmax in data set [3] (Cmax (maximum concentration in blood)) of 114 ± 45 µg/mL. Moreover, the time to peak (Tmax) in data set [3] (time after administration at which the maximum blood level is attained) was at most 0.9 h.
